Measurements as given in patent publication US9714240B2 (PharmAkea, Inc., priority 2013, dated 2017).

Biological target: T1, human autotaxin (Homo sapiens, UniProt Q13822)
T1 construct: Conditioned media is collected from confluent Hep3B cells and concentrated 20-fold; endogenous in cells; host or cells: Hep3B human hepatocellular carcinoma cells (concentrated conditioned medium)
Assay: Human Autotaxin Assay (choline release from LPC)
Assay type: biochemical
Settings: ATX in concentrated conditioned media from Hep3B cells, substrate LPC 14:0 100 uM, absorbance at 555 nm
Procedure: ATX activity is assayed in concentrated conditioned media from Hep3B human hepatocellular carcinoma cells by measuring the amount of choline released from the substrate, lysophosphatidylcholine (LPC) as it is cleaved to LPA. Conditioned media is collected from confluent Hep3B cells and concentrated 20-fold using Centriprep-30 filter devices (Millipore). To assay for autotaxin inhibition, 10-20 μL of the concentrated conditioned media is incubated with 2.5 μL of a test compound in DMSO and 72.5-82.5 μL lyso-PLD buffer (100 mM Tris pH 9, 500 mM NaCl, 5 mM MgCl2, 5 mM CaCl2, 0.05% Triton X-100 in the presence or absence of 0.2% fatty-acid-free human serum albumin) for 15 min at 37° C. After the 15 min incubation, 5 ul of 2 mM LPC (14:0; Avanti Polar Lipids Cat#855575C) diluted in lyso-PLD buffer is added for a final concentration of 100 uM and the incubation continues for 1.5-3 hours at 37° C. 100 μl of a color mix containing 4.5 mM 4-aminoantipyrine, 2.7 mM N-ethyl-N-(2-hydroxy-3-sulfopropyl)-m-toluidine, 21 units/ml horseradish peroxidase and 3 units/ml choline oxidase in 50 mM Tris, pH 8, 4.5 mM MgCl2 is added and the incubation continued for 15 minutes at room temperature before reading the absorbance at 555 nm.

Structure (SMILES)	IC50 [nM]
CS(=O)(=O)c1ccc2c(/C=C(\C#N)c3ccc(C(=O)O)cc3)cn(Cc3ccc(F)cc3)c2c1 [Compound 1-67, (Z)-4-(1-cyano-2-(1-(4-fluorobenzyl)-6-(methylsulfonyl)-1H-indol-3-yl)vinyl)benzoic Acid]	500 to 10000
N#C/C(=C\c1cn(Cc2ccc(C(F)(F)F)cc2)c2cc(Cl)ccc12)c1ccc(C(=O)O)cc1 [Compound 1-21, 4-[(Z)-2-[6-chloro-1-[[4-(trifluoromethyl)phenyl]methyl]indol-3-yl]-1-cyano-vinyl]benzoic Acid]	500 to 10000
N#C/C(=C\c1cn(Cc2ccc(F)cc2)c2cc([N+](=O)[O-])ccc12)c1ccc(C(=O)O)cc1 [Compound 1-66, (Z)-4-(1-cyano-2-(1-(4-fluorobenzyl)-6-nitro-1H-indol-3-yl)vinyl)benzoic Acid]	≤ 500
N#C/C(=C\c1cn(Cc2cc(C(F)(F)F)cc(C(F)(F)F)c2)c2cc(Cl)ccc12)c1ccc(C(=O)O)cc1 [Compound 1-20, 4-[(Z)-2-[1-[[3,5-bis(trifluoromethyl)phenyl]methyl]-6-chloro-indol-3-yl]-1-cyano-vinyl]benzoic Acid]	> 10000
N#C/C(=C\c1cn(Cc2ccccc2)c2cc(Cl)ccc12)c1ccc(C(=O)O)cc1 [Compound 1-13, 4-[(Z)-2-(1-benzyl-6-chloro-indol-3-yl)-1-cyano-vinyl]benzoic Acid]	500 to 10000
N#C/C(=C\c1cn(Cc2ccc(F)cc2)c2c(Cl)cccc12)c1ccc(C(=O)O)cc1 [Compound 1-5, 4-[(Z)-2-[7-chloro-1-[(4-fluorophenyl)methyl]indol-3-yl]-1-cyano-vinyl]benzoic Acid]	500 to 10000
CCOc1ccc2c(/C=C(\C#N)c3ccc(C(=O)O)cc3)cn(Cc3ccc(F)cc3)c2c1 [Compound 1-65, (Z)-4-(1-cyano-2-(6-ethoxy-1-(4-fluorobenzyl)-1H-indol-3-yl)vinyl)benzoic Acid]	≤ 500
COc1ccc(Cn2cc(/C=C(\C#N)c3ccc(C(=O)O)cc3)c3ccc(Cl)c(F)c32)cn1 [Compound 1-50]	≤ 500
N#C/C(=C\c1cn(Cc2ccc(F)cc2)c2cc(Cl)ccc12)c1ccc(CC(=O)O)cc1 [Compound 2-25, (Z)-2-(4-(2-(6-chloro-1-(4-fluorobenzyl)-1H-indol-3-yl)-1-cyanovinyl)phenyl)acetic Acid]	≤ 500
N#C/C(=C\c1cn(Cc2ccc(OC(F)(F)F)cc2)c2cc(Cl)ccc12)c1ccc(C(=O)O)cc1 [Compound 1-45, (Z)-4-(2-(6-chloro-1-(4-(trifluoromethoxy)benzyl)-1H-indol-3-yl)-1-cyanovinyl)benzoic Acid]	500 to 10000
N#C/C(=C\c1cn(Cc2ccc(F)cc2C(F)(F)F)c2cc(Cl)ccc12)c1ccc(C(=O)O)cc1 [Compound 1-46, (Z)-4-(2-(6-chloro-1-(4-fluoro-2-(trifluoromethyl)benzyl)-1H-indol-3-yl)-1-cyanovinyl)benzoic Acid]	> 10000
N#C/C(=C\c1cn(CCCc2ccc(F)cc2)c2cc(Cl)ccc12)c1ccc(C(=O)O)cc1 [Compound 1-23, 4-[(Z)-2-[6-chloro-1-[3-(4-fluorophenyl)propyl]indol-3-yl]-1-cyano-vinyl]benzoic Acid]	> 10000
N#C/C(=C\c1cn(Cc2ccc(F)cc2)c2cc(F)ccc12)c1ccc(C(=O)O)cc1 [Compound 1-7, 4-[(Z)-1-cyano-2-[6-fluoro-1-[(4-fluorophenyl)methyl]indol-3-yl]vinyl]benzoic Acid]	≤ 500
COc1ccc2c(/C=C(\C#N)c3ccc(C(=O)O)cc3)cn(Cc3ccc(F)cc3)c2c1 [Compound 1-10, 4-[(Z)-1-cyano-2-[1-[(4-fluorophenyl)methyl]-6-methoxy-indol-3-yl]vinyl]benzoic Acid]	≤ 500
COc1ccc2c(/C=C(\C#N)c3ccc(C(=O)O)cc3)cn(Cc3ccc(OC)nc3)c2c1 [Compound 1-29, 4-[(Z)-1-cyano-2-[6-methoxy-1-[(6-methoxy-3-pyridyl)methyl]indol-3-yl]vinyl]benzoic Acid]	≤ 500
N#C/C(=C\c1cn(Cc2ccc(F)cc2)c2ccc(F)cc12)c1ccc(C(=O)O)cc1 [Compound 1-6, 4-[(Z)-1-cyano-2-[5-fluoro-1-[(4-fluorophenyl)methyl]indol-3-yl]vinyl]benzoic Acid]	500 to 10000
COc1ccc(Cn2cc(/C=C(\C#N)c3ccc(C(=O)O)cc3)c3ccc(OC(F)(F)F)cc32)cn1 [Compound 1-76]	≤ 500
Cn1cc(Cn2cc(/C=C(\C#N)c3ccc(C(=O)O)cc3)c3ccc(Cl)cc32)cn1 [Compound 1-25, 4-[(Z)-2-[6-chloro-1-[(1-methylpyrazol-4-yl)methyl]indol-3-yl]-1-cyano-vinyl]benzoic Acid]	500 to 10000

Structure (SMILES)	IC50 [nM]
N#C/C(=C\c1cn(Cc2cnc(C(F)(F)F)s2)c2c(F)c(Cl)ccc12)c1ccc(C(=O)O)cc1 [Compound 1-52]	≤ 500
COc1ccc(Cn2cc(/C=C(\C#N)c3ccc(C(=O)O)cc3)c3ccc(Cl)cc32)cn1 [Compound 1-26, 4-[(Z)-2-[6-chloro-1-[(6-methoxy-3-pyridyl)methyl]indol-3-yl]-1-cyano-vinyl]benzoic Acid]	≤ 500
N#C/C(=C\c1cn(Cc2ccc(C(F)(F)F)nc2)c2cc(Cl)ccc12)c1ccc(C(=O)O)cc1 [Compound 1-27, 4-[(Z)-2-[6-chloro-1-[[6-(trifluoromethyl)-3-pyridyl]methyl]indol-3-yl]-1-cyano-vinyl]benzoic Acid]	≤ 500
N#C/C(=C\c1cn(Cc2ccc(F)cc2)c2cc(F)cc(F)c12)c1ccc(C(=O)O)cc1 [Compound 1-11, 4-[(Z)-1-cyano-2-[4,6-difluoro-1-[(4-fluorophenyl)methyl]indol-3-yl]vinyl]benzoic Acid]	≤ 500
N#C/C(=C\c1cn(Cc2ccccc2)c2cc(Cl)ccc12)c1cccc(C(=O)O)c1 [Compound 2-4, 3-[(Z)-2-(1-benzyl-6-chloro-indol-3-yl)-1-cyano-vinyl]benzoic Acid]	500 to 10000
N#C/C(=C\c1cn(Cc2ccncc2)c2cc(Cl)ccc12)c1ccc(C(=O)O)cc1 [Compound 1-14, 4-[(Z)-2-[6-chloro-1-(4-pyridylmethyl)indol-3-yl]-1-cyano-vinyl]benzoic Acid]	500 to 10000
N#C/C(=C\c1cn(Cc2ccc(F)cc2)c2ccc(Cl)cc12)c1ccc(C(=O)O)cc1 [Compound 1-3, 4-[(Z)-2-[5-chloro-1-[(4-fluorophenyl)methyl]indol-3-yl]-1-cyano-vinyl]benzoic Acid]	> 10000
N#C/C(=C\c1cn(Cc2ccc(F)cc2)c2ccccc12)c1ccc(C(=O)O)cc1 [Compound 1-1, 4-[(Z)-1-cyano-2-[1-[(4-fluorophenyl)methyl]indol-3-yl]vinyl]benzoic Acid]	500 to 10000
N#C/C(=C\c1cn(Cc2ccc(F)cc2)c2cc(OC(F)(F)F)ccc12)c1ccc(C(=O)O)cc1 [Compound 1-75, (Z)-4-(1-cyano-2-(1-(4-fluorobenzyl)-6-trifluoromethoxy-1H-indol-3-yl)vinyl)benzoic Acid]	≤ 500
CCOc1ncc(Cn2cc(/C=C(\C#N)c3ccc(C(=O)O)cc3)c3ccc(Cl)cc32)s1 [Compound 1-17, 4-[(Z)-2-[6-chloro-1-[(2-ethoxythiazol-5-yl)methyl]indol-3-yl]-1-cyano-vinyl]benzoic Acid]	500 to 10000
N#C/C(=C\c1cn(Cc2ccc(F)cc2)c2cc(C(F)(F)F)ccc12)c1ccc(C(=O)O)cc1 [Compound 1-9, 4-[(Z)-1-cyano-2-[1-[(4-fluorophenyl)methyl]-6-(trifluoromethyl)indol-3-yl]vinyl]benzoic Acid]	500 to 10000
N#C/C(=C\c1cn(Cc2ccc(OC(F)F)cc2F)c2cc(Cl)ccc12)c1ccc(C(=O)O)cc1 [Compound 1-47, (Z)-4-(2-(6-chloro-1-(4-(difluoromethoxy)-2-fluorobenzyl)-1H-indol-3-yl)-1-cyanovinyl)benzoic Acid]	500 to 10000
N#C/C(=C\c1cn(Cc2ccc(OCC(F)(F)F)nc2)c2cc(Cl)ccc12)c1ccc(C(=O)O)cc1 [Compound 1-48, (Z)-4-(2-(6-chloro-1-((6-(2,2,2-trifluoroethoxy)pyridin-3-yl)methyl)-1H-indol-3-yl)-1-cyanovinyl)benzoic Acid]	> 10000
N#C/C(=C\c1cn(Cc2ccc(F)cc2)c2cc(Br)ccc12)c1ccc(C(=O)O)cc1 [Compound 1-8, 4-[(Z)-2-[6-bromo-1-[(4-fluorophenyl)methyl]indol-3-yl]-1-cyano-vinyl]benzoic Acid]	500 to 10000
N#C/C(=C\c1cn(Cc2ccc(Cl)nc2)c2cc(Cl)ccc12)c1ccc(C(=O)O)cc1 [Compound 1-16, 4-[(Z)-2-[6-chloro-1-[(6-chloro-3-pyridyl)methyl]indol-3-yl]-1-cyano-vinyl]benzoic Acid]	≤ 500
CCCc1noc(Cn2cc(/C=C(\C#N)c3ccc(C(=O)O)cc3)c3ccc(Cl)cc32)n1 [Compound 1-18, 4-[(Z)-2-[6-chloro-1-[(3-propyl-1,2,4-oxadiazol-5-yl)methyl]indol-3-yl]-1-cyano-vinyl]benzoic Acid]	500 to 10000
N#C/C(=C\c1cn(Cc2cnc(C(F)(F)F)s2)c2cc(OC(F)(F)F)ccc12)c1ccc(C(=O)O)cc1 [Compound 1-77, (Z)-4-(1-cyano-2-(6-(trifluoromethoxy)-1-((2-(trifluoromethyl)thiazol-5-yl)methyl)-1H-indol-3-yl)vinyl)benzoic Acid]	≤ 500
